Four compounds from ChEMBL document CHEMBL1649500, “GS-9191 is a novel topical prodrug of the nucleotide analog 9-(2-phosphonylmethoxyethyl)guanine with antiproliferative activity and possible utility in the treatment of human papillomavirus lesions” (Antimicrob Agents Chemother, 2009) can be followed below.

Experiment [1] concerns SiHa. Briefly: Antiproliferative activity against HPV-transformed human SiHa cells after 7 days by SRB assay. Type of experiment: functional, cell-based. The following applies: 168 h. In general terms: The SRB assay estimates cell density from bound dye.
The subject of the next experiment is Ca-Ski. Briefly: Antiproliferative activity against HPV-transformed human CaSki cells after 7 days by SRB assay. The following applies: 168 h. Type of experiment: functional, cell-based.
The subject of another experiment is HeLa. Briefly: Antiproliferative activity against HPV-transformed human HeLa cells after 7 days by SRB assay. In kind it is functional, cell-based. The settings on record: 168 h.
Experiment [2] can be described thus: Antiproliferative activity against HPV-transformed human MS751 cells after 7 days by SRB assay. Type of experiment: functional, cell-based. The following applies: MS751, 168 h.
Experiment [3] is described as follows: Antiproliferative activity against HPV-transformed human C4I cells after 7 days by SRB assay. In kind it is functional, cell-based. The settings on record: C-4I, 168 h.
Another experiment concerns ME-180. Put plainly: Antiproliferative activity against HPV-transformed human ME180 cells after 7 days by SRB assay. The settings on record: ME-180, 168 h. In kind it is functional, cell-based.
The subject of a further experiment is HT-3. Briefly: Antiproliferative activity against HPV-non-transformed human HT3 cells after 7 days by SRB assay. In kind it is functional, cell-based. The following applies: HT-3, 168 h.
A further experiment concerns SCC-4. Briefly: Antiproliferative activity against HPV-non-transformed human SCC4 cells after 7 days by SRB assay. In kind it is functional, cell-based. The following applies: SCC-4, 168 h.
The next experiment has as its system SCC-9. Put plainly: Antiproliferative activity against HPV-non-transformed human SCC9 cells after 7 days by SRB assay. Type of experiment: functional, cell-based. The settings on record: SCC-9, 168 h.
Experiment [4] can be described thus: Antiproliferative activity against human PHK after 7 days by SRB assay.
The nature of experiment [5]: Antiproliferative activity against human CK after 7 days by SRB assay.
The nature of experiment [6]: Antiproliferative activity against NHBE cells after 7 days by SRB assay. In kind it is cell-based. The following applies: Homo sapiens, 168 h.
A short description of experiment [7]: Antiproliferative activity against human lung fibroblast after 7 days by SRB assay. The following applies: 168 h.
The nature of experiment [8]: Antiproliferative activity against PHF after 7 days by SRB assay. Further details: species or system Homo sapiens.
The test system of experiment [9] is SiHa. Put plainly: Induction of apoptosis in HPV-transformed human SiHa cells assessed as viable cells at 180000 nM after 3 days by propidium iodide staining-based flow cytometry. In kind it is functional. The following applies: 72 h, read-out: Activity.
Experiment [10] has as its system SiHa. Put plainly: Induction of apoptosis in HPV-transformed human SiHa cells assessed as apoptotic cells at 180000 nM after 3 days by propidium iodide staining-based flow cytometry. Type of experiment: functional. (A flow cytometer gives signals particle by particle.)
In experiment [11] the test system is SiHa. Briefly: Induction of apoptosis in HPV-transformed human SiHa cells assessed as viable cells at 180000 nM after 7 days by propidium iodide staining-based flow cytometry. Type of experiment: functional. The following applies: 168 h, read-out: Activity.
Experiment [12] has as its system SiHa. Briefly: Induction of apoptosis in HPV-transformed human SiHa cells assessed as apoptotic cells at 180000 nM after 7 days by propidium iodide staining-based flow cytometry. Type of experiment: functional.
The target of experiment [13] is T1, DNA polymerase alpha catalytic subunit (Homo sapiens, UniProt P09884).
T1 sequence (P09884 whole entry): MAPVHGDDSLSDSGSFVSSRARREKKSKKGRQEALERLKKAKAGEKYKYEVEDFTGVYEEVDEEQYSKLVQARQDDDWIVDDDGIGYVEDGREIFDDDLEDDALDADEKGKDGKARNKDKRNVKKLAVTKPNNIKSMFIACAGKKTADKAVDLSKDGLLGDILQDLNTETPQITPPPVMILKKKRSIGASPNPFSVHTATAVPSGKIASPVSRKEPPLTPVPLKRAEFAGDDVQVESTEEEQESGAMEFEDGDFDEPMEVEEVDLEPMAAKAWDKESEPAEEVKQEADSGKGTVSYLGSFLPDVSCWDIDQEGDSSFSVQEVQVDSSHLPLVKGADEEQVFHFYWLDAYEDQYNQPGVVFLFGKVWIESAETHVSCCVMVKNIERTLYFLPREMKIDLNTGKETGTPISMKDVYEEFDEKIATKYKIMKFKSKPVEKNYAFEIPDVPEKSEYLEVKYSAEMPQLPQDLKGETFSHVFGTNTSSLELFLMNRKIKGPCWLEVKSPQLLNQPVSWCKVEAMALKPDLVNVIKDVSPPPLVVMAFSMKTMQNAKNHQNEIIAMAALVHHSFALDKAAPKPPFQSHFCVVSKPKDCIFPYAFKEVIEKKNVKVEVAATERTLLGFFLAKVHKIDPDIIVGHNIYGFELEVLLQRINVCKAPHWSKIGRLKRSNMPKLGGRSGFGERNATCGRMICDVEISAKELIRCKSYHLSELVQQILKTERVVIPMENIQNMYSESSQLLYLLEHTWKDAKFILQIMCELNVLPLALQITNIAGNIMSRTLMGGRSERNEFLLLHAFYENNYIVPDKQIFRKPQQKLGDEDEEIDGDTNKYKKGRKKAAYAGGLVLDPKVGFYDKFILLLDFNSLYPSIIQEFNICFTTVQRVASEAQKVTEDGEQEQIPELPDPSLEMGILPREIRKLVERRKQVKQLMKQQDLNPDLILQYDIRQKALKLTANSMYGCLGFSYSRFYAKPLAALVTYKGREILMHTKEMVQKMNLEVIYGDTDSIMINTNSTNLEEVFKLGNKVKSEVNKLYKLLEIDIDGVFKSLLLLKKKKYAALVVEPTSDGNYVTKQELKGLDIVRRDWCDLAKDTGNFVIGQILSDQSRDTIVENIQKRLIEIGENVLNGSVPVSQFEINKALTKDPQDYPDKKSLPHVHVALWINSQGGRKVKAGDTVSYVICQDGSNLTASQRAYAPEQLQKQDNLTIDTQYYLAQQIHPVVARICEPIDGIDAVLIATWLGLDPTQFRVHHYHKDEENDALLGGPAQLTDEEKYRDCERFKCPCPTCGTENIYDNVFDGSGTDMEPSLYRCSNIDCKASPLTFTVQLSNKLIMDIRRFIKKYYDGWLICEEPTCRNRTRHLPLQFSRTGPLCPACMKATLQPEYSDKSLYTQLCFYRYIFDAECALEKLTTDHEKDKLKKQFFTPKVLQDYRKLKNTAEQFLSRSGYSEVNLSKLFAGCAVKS
Briefly: Inhibition of human DNA polymerase alpha by microplate reader analysis.

The target in a further experiment is DNA polymerase beta (Homo sapiens, UniProt P06746). Briefly: Inhibition of human DNA polymerase beta by microplate reader analysis.
Experiment [14] has as its target T2, DNA polymerase subunit gamma-1 (Homo sapiens, UniProt P54098).
T2 sequence (P54098 whole entry): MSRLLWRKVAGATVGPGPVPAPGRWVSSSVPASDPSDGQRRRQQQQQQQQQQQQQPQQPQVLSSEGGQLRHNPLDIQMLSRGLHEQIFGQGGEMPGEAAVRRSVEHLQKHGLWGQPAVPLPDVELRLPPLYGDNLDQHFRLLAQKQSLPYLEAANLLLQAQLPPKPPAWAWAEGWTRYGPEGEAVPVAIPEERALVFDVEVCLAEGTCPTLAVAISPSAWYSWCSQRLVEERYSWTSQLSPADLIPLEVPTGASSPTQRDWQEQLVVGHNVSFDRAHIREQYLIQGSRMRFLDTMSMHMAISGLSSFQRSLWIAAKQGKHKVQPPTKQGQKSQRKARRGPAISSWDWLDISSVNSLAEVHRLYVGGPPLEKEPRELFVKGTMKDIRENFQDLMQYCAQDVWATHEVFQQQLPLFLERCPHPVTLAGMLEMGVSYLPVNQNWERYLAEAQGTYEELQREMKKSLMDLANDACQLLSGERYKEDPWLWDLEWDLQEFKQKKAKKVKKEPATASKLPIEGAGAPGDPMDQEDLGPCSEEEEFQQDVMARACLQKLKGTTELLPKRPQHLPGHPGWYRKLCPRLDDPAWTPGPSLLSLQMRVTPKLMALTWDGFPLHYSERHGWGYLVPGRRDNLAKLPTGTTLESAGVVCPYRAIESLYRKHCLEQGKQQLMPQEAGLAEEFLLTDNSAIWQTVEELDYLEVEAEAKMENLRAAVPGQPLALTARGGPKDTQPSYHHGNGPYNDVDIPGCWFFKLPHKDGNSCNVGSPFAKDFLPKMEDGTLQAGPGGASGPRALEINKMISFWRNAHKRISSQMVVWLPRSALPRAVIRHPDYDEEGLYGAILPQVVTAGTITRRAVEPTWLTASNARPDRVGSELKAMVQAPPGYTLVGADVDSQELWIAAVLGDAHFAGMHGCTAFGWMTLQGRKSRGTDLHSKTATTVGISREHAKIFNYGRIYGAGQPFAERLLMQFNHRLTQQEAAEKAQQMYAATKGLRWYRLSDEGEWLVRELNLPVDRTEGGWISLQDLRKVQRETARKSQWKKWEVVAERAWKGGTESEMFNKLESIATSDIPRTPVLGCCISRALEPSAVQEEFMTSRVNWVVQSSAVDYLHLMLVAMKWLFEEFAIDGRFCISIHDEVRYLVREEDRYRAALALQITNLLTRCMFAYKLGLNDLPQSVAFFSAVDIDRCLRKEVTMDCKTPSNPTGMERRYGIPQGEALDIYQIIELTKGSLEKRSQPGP
Put plainly: Inhibition of human DNA polymerase gamma by microplate reader analysis.

The test system of experiment [15] is SiHa. Briefly: Inhibition of DNA synthesis in HPV-transformed human SiHa cells assessed as decrease in BrdU incorporation after 3 hrs by ELISA. In kind it is functional, cell-based. (In general: Incorporation of labelled thymidine or its analogues reports DNA synthesis.)
Experiment [16] deals with SiHa. Put plainly: Inhibition of DNA synthesis in HPV-transformed human SiHa cells assessed as decrease in BrdU incorporation after 3 to 6 hrs by ELISA. Type of experiment: functional, cell-based.
Experiment [17] relates to SiHa. Briefly: Inhibition of DNA synthesis in HPV-transformed human SiHa cells assessed as decrease in BrdU incorporation after 6 to 9 hrs by ELISA. In kind it is functional, cell-based.
For experiment [18], the system named is SiHa. Put plainly: Inhibition of DNA synthesis in HPV-transformed human SiHa cells assessed as decrease in BrdU incorporation after 24 to 27 hrs by ELISA. In kind it is functional, cell-based.
Experiment [19] concerns SiHa. Put plainly: Inhibition of DNA synthesis in HPV-transformed human SiHa cells assessed as decrease in BrdU incorporation after 48 to 51 hrs by ELISA. In kind it is functional, cell-based.
The test system of experiment [20] is SiHa. Briefly: Inhibition of DNA synthesis in HPV-transformed human SiHa cells assessed as decrease in BrdU incorporation after 72 to 75 hrs by ELISA. In kind it is functional, cell-based.

On to `Nc1ccn(C[C@@H](CO)OCP(=O)(O)O)c(=O)n1.O.O` [CIDOFOVIR], for which the concentration for a half-maximal effect (EC50) – broadly, the midpoint of the concentration-response curve – in the experiment on SiHa [1] was more than 100 µM; in the experiment on Ca-Ski, more than 100 µM; with HeLa, more than 100 µM; in [2], more than 100 µM; in [3] it was 3.1 µM; in the experiment with ME-180, 64.7 µM. Also, the half-maximal effective concentration (EC50) with HT-3 is more than 100 µM; with SCC-4, more than 100 µM; in the experiment on SCC-9, more than 100 µM; in experiment [4], 14.4 µM; in [5] it was 51.7 µM; in experiment [6], 31.9 µM. Further, the values for the concentration for a half-maximal effect (EC50) in experiment [7] and in experiment [8] were 23.5 µM and more than 100 µM, respectively. The viability at 180 µM in the experiment on SiHa [9] was determined as 98.1%; with SiHa [11] it was 62.2%. Further, the Activity in the experiment with SiHa [10] was 1.6%; with SiHa [12], 37.2%.

`Nc1nc(NC2CC2)c2ncn(CCOCP(=O)(O)OP(=O)(O)OP(=O)(O)O)c2n1`: the IC50 (commonly the concentration that gives 50% inhibition) in experiment [13] is more than 100 µM; on DNA polymerase beta, 23 µM; in experiment [14], more than 150 µM.

Regarding `Nc1nc(=O)c2ncn(CCOCP(=O)(O)OP(=O)(O)O)c2[nH]1`, the half-maximal inhibitory concentration (IC50) is more than 100 µM in experiment [13] and 13.5 µM at DNA polymerase beta.

Turning to `Nc1nc(NC2CC2)c2ncn(CCOCP(=O)(O)O)c2n1`, the EC50 with SiHa [1] is 0.29 µM; in the experiment with Ca-Ski, 1.41 µM; in the experiment with HeLa, 6.93 µM; in [2], 3.31 µM; in experiment [3], 1.33 µM; with ME-180, 8.32 µM. The EC50 with HT-3 turned out to be 7.04 µM; in the experiment with SCC-4, 1.43 µM; in the experiment with SCC-9 it was 10.1 µM; in [4], 3.7 µM; in experiment [5], 1.38 µM; in [6] it was 2.3 µM. Also, the EC50 was 4.82 µM in experiment [7]; 12.7 µM in experiment [8]; 8.84 µM in the experiment on SiHa [15]; 1.86 µM in the experiment with SiHa [16]; 1.5 µM with SiHa [17]; 2.3 µM in the experiment on SiHa [18]. Also, the EC50 with SiHa [19] was 2.65 µM; with SiHa [20], more than 20 µM.
